This is an account of results in paper PMC10230504, “Versatile Chemo-Biocatalytic Cascade Driven by a Thermophilic and Irreversible C–C Bond-Forming α-Oxoamine Synthase” (ACS Sustainable Chemistry & Engineering, 2023).

The test deals with T1, ThAOS (Thermus thermophilus, UniProt Q5SHZ8).
T1 construct: gene TTHA1582; recombinant, codon-optimized clone (GenScript), expressed in E. coli BL21 (DE3), purified
T1 sequence (Q5SHZ8 2-395): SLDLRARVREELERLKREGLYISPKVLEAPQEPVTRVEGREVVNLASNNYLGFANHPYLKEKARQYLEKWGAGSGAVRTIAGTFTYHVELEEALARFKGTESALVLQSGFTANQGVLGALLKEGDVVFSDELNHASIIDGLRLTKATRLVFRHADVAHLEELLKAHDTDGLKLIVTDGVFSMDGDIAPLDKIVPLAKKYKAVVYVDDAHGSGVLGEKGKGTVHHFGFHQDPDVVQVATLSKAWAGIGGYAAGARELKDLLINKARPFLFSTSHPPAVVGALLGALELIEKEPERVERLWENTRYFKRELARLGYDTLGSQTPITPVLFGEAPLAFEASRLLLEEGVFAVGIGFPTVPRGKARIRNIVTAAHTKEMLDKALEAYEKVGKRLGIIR
Put plainly: DTNB assay of CoASH release; product confirmed by mass spectrometry. The test is classed as biochemical. The following applies: co-substrate acyl-CoA; 50 °C.

With `NCC(=O)O` [Gly], the “DTNB assay of CoASH release; product confirmed by mass spectrometry” value is “ThAOS was active with AAs (S)-2-aminobutyric acid (L-Aba), L-Ala, Gly and L-Ser”.
